Like-named read-outs stand apart in the source and are kept apart here.
Columns and labels:
[1] = Plasma pharmacokinetics of MGX and FMGX (noncompartmental analysis), phase 1 fixed-sequence DDI study with itraconazole or rifampin; format: in vivo, human; conditions: for Vd: read-out: MGX Vz; for Tmax: median (range)
Protocol: In cohort 1, MGX plasma samples were collected at specified time points daily on days 1–4, once every 2 days on days 6–14, daily for 3 days from days 18 to 20, once every 2 days from days 21 to 29, and then on day 31, while itraconazole samples were collected at specified time points on days 19, 25, and 31. […] PK parameters were calculated using noncompartmental analysis from the plasma concentration-time data for MGX and FMGX. Primary PK parameters were maximum observed plasma concentration (Cmax), AUC from time 0 to infinity (AUC0-inf), and AUC up to time t (AUC0-t, where t was the last time point with concentrations above the lower limit of quantitation). […] Secondary PK parameters were time to attain Cmax (Tmax), AUC from time 0 to 23 hours (AUC0-23), terminal elimination half-life after the last dosing on the day (t1/2), clearance (CL), volume of distribution at terminal phase (Vz), and terminal phase rate constant after the last dosing on the day (λz).

[2] = test system: phosphatidylinositol glycan anchor biosynthesis class W (PIGW); design: method as in PMID 33105672, PMID 34626339; conditions: cited from earlier work
[3] = mice infected with C. albicans and C. glabrata; cited from earlier work
[4] = test system: human CYPs; conditions: cited from earlier work
[5] = test system: CYP1A2; conditions: cited from earlier work
[6] = test system: CYP2A6; conditions: cited from earlier work
[7] = test system: CYP2B6; conditions: cited from earlier work
[8] = test system: CYP2C8; conditions: cited from earlier work
[9] = test system: CYP2C9; conditions: cited from earlier work
[10] = test system: CYP2C19; conditions: cited from earlier work
[11] = test system: CYP2D6; conditions: cited from earlier work
[12] = test system: CYP2E1; conditions: cited from earlier work
[13] = test system: CYP3A4; conditions: cited from earlier work
[14] = test system: recombinant human CYP (rCYP) enzymes; conditions: cited from earlier work

Nc1ncccc1-c1cc(Cc2ccc(COc3ccccn3)cc2)no1 [MGX, manogepix]
MGX Vz ([1]; FMGX only 1000 mg BID IV, D1, Cohort 2, n = 17, geometric mean (geometric %CV)): 190 (40.8) L
AUC(0-inf) ([1]; human, in vivo, FMGX 500 mg BID IV D18 + ITR 200 mg QD PO D15-30, Cohort 1, n = 16, geometric mean (geometric %CV), read-out: MGX AUC(0-inf)): 458 µg·h/mL
AUC(0-t) ([1]; human, in vivo, FMGX 500 mg BID IV D18 + ITR 200 mg QD PO D15-30, Cohort 1, n = 16, geometric mean (geometric %CV), read-out: MGX AUC(0-t)): 421 µg·h/mL
Cmax ([1]; human, in vivo, FMGX 500 mg BID IV D18 + ITR 200 mg QD PO D15-30, Cohort 1, n = 16, geometric mean (geometric %CV), read-out: MGX Cmax): 7060 ng/mL
Vd ([1]; human, in vivo, FMGX 500 mg BID IV D18 + ITR 200 mg QD PO D15-30, Cohort 1, n = 16, geometric mean (geometric %CV)): 195 L
AUC(0-inf) ([1]; human, in vivo, FMGX 500 mg BID IV D18 + ITR 200 mg QD PO D15–30, Cohort 1, n = 16, read-out: MGX AUC(0-inf), least squares geometric mean): 458 µg·h/mL
AUC(0-t) ([1]; human, in vivo, FMGX 500 mg BID IV D18 + ITR 200 mg QD PO D15–30, Cohort 1, n = 16, read-out: MGX AUC(0-t), least squares geometric mean): 421 µg·h/mL
Cmax ([1]; human, in vivo, FMGX 500 mg BID IV D18 + ITR 200 mg QD PO D15–30, Cohort 1, n = 16, read-out: MGX Cmax, least squares geometric mean): 7060 ng/mL
AUC(0-inf) ([1]; human, in vivo, FMGX 1,000 mg BID IV D24 + RIF 600 mg QD PO D15–33, Cohort 2, n = 17, geometric mean (geometric %CV), read-out: MGX AUC(0-inf)): 450 µg·h/mL
AUC(0-t) ([1]; human, in vivo, FMGX 1,000 mg BID IV D24 + RIF 600 mg QD PO D15–33, Cohort 2, n = 17, geometric mean (geometric %CV), read-out: MGX AUC(0-t)): 436 µg·h/mL
Cmax ([1]; human, in vivo, FMGX 1,000 mg BID IV D24 + RIF 600 mg QD PO D15–33, Cohort 2, n = 17, geometric mean (geometric %CV), read-out: MGX Cmax): 12100 ng/mL
Vd ([1]; human, in vivo, FMGX 1,000 mg BID IV D24 + RIF 600 mg QD PO D15–33, Cohort 2, n = 17, geometric mean (geometric %CV)): 205 L
AUC(0-inf) ([1]; human, in vivo, FMGX 1,000 mg BID IV D24 + RIF 600 mg QD PO D15–33, Cohort 2, n = 17, read-out: MGX AUC(0-inf), least squares geometric mean): 450 µg·h/mL
AUC(0-t) ([1]; human, in vivo, FMGX 1,000 mg BID IV D24 + RIF 600 mg QD PO D15–33, Cohort 2, n = 17, read-out: MGX AUC(0-t), least squares geometric mean): 436 µg·h/mL
Cmax ([1]; human, in vivo, FMGX 1,000 mg BID IV D24 + RIF 600 mg QD PO D15–33, Cohort 2, n = 17, read-out: MGX Cmax, least squares geometric mean): 12100 ng/mL
half-life ([1]; human, in vivo, Terminal elimination half-life for MGX): ~78 h
AUC(0-inf) ([1]; human, in vivo, iv, 500 mg, FMGX only 500 mg BID IV, D1, Cohort 1, n = 16, geometric mean (geometric %CV), read-out: MGX AUC(0-inf)): 460 µg·h/mL
AUC(0-t) ([1]; human, in vivo, iv, 500 mg, FMGX only 500 mg BID IV, D1, Cohort 1, n = 16, geometric mean (geometric %CV), read-out: MGX AUC(0-t)): 429 µg·h/mL
Cmax ([1]; human, in vivo, iv, 500 mg, FMGX only 500 mg BID IV, D1, Cohort 1, n = 16, geometric mean (geometric %CV), read-out: MGX Cmax): 6940 ng/mL
Vd ([1]; human, in vivo, iv, 500 mg, FMGX only 500 mg BID IV, D1, Cohort 1, n = 16, geometric mean (geometric %CV)): 185 L
AUC(0-inf) ([1]; human, in vivo, iv, 500 mg, FMGX only 500 mg BID IV, D1, Cohort 1, n = 16, read-out: MGX AUC(0-inf), least squares geometric mean): 460 µg·h/mL
AUC(0-t) ([1]; human, in vivo, iv, 500 mg, FMGX only 500 mg BID IV, D1, Cohort 1, n = 16, read-out: MGX AUC(0-t), least squares geometric mean): 429 µg·h/mL
Cmax ([1]; human, in vivo, iv, 500 mg, FMGX only 500 mg BID IV, D1, Cohort 1, n = 16, read-out: MGX Cmax, least squares geometric mean): 6940 ng/mL
clearance ([1]; human, in vivo, iv, 500 mg, MGX CL): 27.7 mL/min
half-life ([1]; human, in vivo, iv, 500 mg, MGX t1/2): 77.3 h
MGX CL ([1]; human, in vivo, iv, 1000 mg): 1,862 (18.5) mL/h
AUC(0-inf) ([1]; human, in vivo, iv, 1000 mg, FMGX only 1000 mg BID IV, D1, Cohort 2, n = 17, geometric mean (geometric %CV), read-out: MGX AUC(0-inf)): 822 µg·h/mL
AUC(0-t) ([1]; human, in vivo, iv, 1000 mg, FMGX only 1000 mg BID IV, D1, Cohort 2, n = 17, geometric mean (geometric %CV), read-out: MGX AUC(0-t)): 772 µg·h/mL
Cmax ([1]; human, in vivo, iv, 1000 mg, FMGX only 1000 mg BID IV, D1, Cohort 2, n = 17, geometric mean (geometric %CV), read-out: MGX Cmax): 13900 ng/mL
AUC(0-inf) ([1]; human, in vivo, iv, 1000 mg, FMGX only 1,000 mg BID IV, D1, Cohort 2, n = 17, read-out: MGX AUC(0-inf), least squares geometric mean): 822 µg·h/mL
AUC(0-t) ([1]; human, in vivo, iv, 1000 mg, FMGX only 1,000 mg BID IV, D1, Cohort 2, n = 17, read-out: MGX AUC(0-t), least squares geometric mean): 772 µg·h/mL
Cmax ([1]; human, in vivo, iv, 1000 mg, FMGX only 1,000 mg BID IV, D1, Cohort 2, n = 17, read-out: MGX Cmax, least squares geometric mean): 13900 ng/mL
half-life ([1]; human, in vivo, iv, 1000 mg, MGX t1/2): 70.7 h
Tmax ([1]; human, in vivo, FMGX 500 mg BID IV D18 + ITR 200 mg QD PO D15-30, Cohort 1, n = 16): 12 h
Tmax ([1]; human, in vivo, FMGX only 500 mg BID IV, D1, Cohort 1, n = 16): 12 h
Tmax ([1]; human, in vivo, FMGX only 1000 mg BID IV, D1, Cohort 2, n = 17): 12 h
Inhibition of PIGW, closest mammalian ortholog of GWT1 [2]: not inhibited
Exposure (AUC) and half-life of MGX after pre-administration of 1-aminobenzotriazole [3]: increase
Reversible inhibition, other CYP isoforms [4]: Weak or no inhibition
Reversible inhibition of CYP1A2 [5]: observed
Time-dependent inhibition of CYP1A2 [5]: no time-dependent inhibition
Time-dependent inhibition of CYP2A6 [6]: no time-dependent inhibition
Reversible inhibition of CYP2B6 [7]: observed
Time-dependent inhibition of CYP2B6 [7]: weak time-dependent inhibition
Reversible inhibition of CYP2C8 [8]: observed
Time-dependent inhibition of CYP2C8 [8]: no time-dependent inhibition
Reversible inhibition of CYP2C9 [9]: observed
Time-dependent inhibition of CYP2C9 [9]: no time-dependent inhibition
Reversible inhibition of CYP2C19 [10]: observed
Time-dependent inhibition of CYP2C19 [10]: no time-dependent inhibition
Reversible inhibition of CYP2D6 [11]: observed
Time-dependent inhibition of CYP2D6 [11]: no time-dependent inhibition
Time-dependent inhibition of CYP2E1 [12]: no time-dependent inhibition
Reversible inhibition of CYP3A4 [13]: observed
Time-dependent inhibition of CYP3A4 [13]: weak time-dependent inhibition
Enzymes involved in formation of MGX-derived metabolites [14]: multiple recombinant human CYP (rCYP) enzymes were involved

From publication PMC11620482, “Phase 1 drug-drug interaction study to assess the effect of CYP3A4 inhibition and pan-CYP induction on the pharmacokinetics and safety of fosmanogepix in healthy participants” (Antimicrobial Agents and Chemotherapy, 2024)
